The source of these data is patent US20250195530A1, “POLQ INHIBITORS” (ASTRAZENECA AB, priority 2022, published 2025).

Structures are written as SMILES. Where only a bound is given, the exact number is not on record here.

One assay deals with DLD-1 BRCA2−/− cells. As to the kind of experiment: Homologous recombination synthetic lethal inhibition of proliferation, DLD-1 BRCA2-/- (Cell Titre Glo 3D). The class given is cell-based. Particulars: DLD-1 BRCA2-/-. The procedure, abridged: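 Cells are seeded in RPMI 1640 (phenol red free, 10% FBS, GlutaMAX) onto pre-dosed compound (10 μM to 0.51 nM, three-fold). Plates are incubated at 37 °C, and medium plus compound are refreshed on day 6. Viability is read by CellTiter-Glo 3D at day 7 (DLD-1) or day 12 (DLD-1 BRCA2−/−), and the IC50 is fitted.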
For the molecule `Cc1ccnc(Cn2c(-c3ccc(OCC(=O)N(C)[C@H]4C[C@@H](O)C4)cc3Cl)nc3c(OC4(C)CC4)ncnc32)c1` [Example T582, 2-(3-chloro-4-(6-(1-methylcyclopropoxy)-9-((4-methylpyridin-2-yl)methyl)-9H-purin-8-yl)phenoxy)-N-((1s,3s)-3-hydroxycyclobutyl)-N-methylacetamide], the “POLQ PD Prolif Lumin” value was 6.2.

Still in this assay, the particulars now being: Homo sapiens, DLD-1, first proliferation column (c5); DLD-1 BRCA2-/-; read-out: POLQ PD Prolif Lumin (converted).
With `Cc1ccnc(Cn2c(-c3ccc(OCC(=O)N4C[C@H]5C[C@@H](C4)O5)cc3Cl)nc3c(OC4(C)CC4)ncnc32)c1` [Example T550, rel-1-((1R,5S)-6-oxa-3-azabicyclo[3.1.1]heptan-3-yl)-2-(3-chloro-4-(6-(1-methylcyclopropoxy)-9-((4-methylpyridin-2-yl)methyl)-9H-purin-8-yl)phenoxy)ethan-1-one], the IC50 is 316 nM. In the case of `Cc1ccnc(Cn2c(-c3ccc(OCC(=O)N4CCC[C@H](F)C4)cc3Cl)nc3c(OC4(C)CC4)ncnc32)c1` [Example T552, (S)-2-(3-chloro-4-(6-(1-methylcyclopropoxy)-9-((4-methylpyridin-2-yl)methyl)-9H-purin-8-yl)phenoxy)-1-(3-fluoropiperidin-1-yl)ethan-1-one], the IC50 was 158 nM. On to `Cc1ccnc(Cn2c(-c3ccc(OCC(=O)N4CCC(F)CC4)cc3Cl)nc3c(OC4(C)CC4)ncnc32)c1` [Example T553, 2-(3-chloro-4-(6-(1-methylcyclopropoxy)-9-((4-methylpyridin-2-yl)methyl)-9H-purin-8-yl)phenoxy)-1-(4-fluoropiperidin-1-yl)ethan-1-one], for which the IC50 was 200 nM. `Cc1ccnc(Cn2c(-c3ccc(CC(=O)N4CC5(CCN5)C4)cc3Cl)nc3c(OC4(C)CC4)ncnc32)c1` [Example T556, 2-(3-chloro-4-(6-(1-methylcyclopropoxy)-9-((4-methylpyridin-2-yl)methyl)-9H-purin-8-yl)phenyl)-1-(1,6-diazaspiro[3.3]heptan-6-yl)ethan-1-one]: the IC50 was 6310 nM.

Consider `Cc1ccnc(Cn2c(-c3ccc(CC(=O)N4C5CNCC4C5)cc3Cl)nc3c(OC4(C)CC4)ncnc32)c1` [Example T557, 1-(3,6-diazabicyclo[3.1.1]heptan-6-yl)-2-(3-chloro-4-(6-(1-methylcyclopropoxy)-9-((4-methylpyridin-2-yl)methyl)-9H-purin-8-yl)phenyl)ethan-1-one], for which the IC50 is 6310 nM. With `Cc1ccnc(Cn2c(-c3ccc(CC(=O)N4CC5(CNC5)C4)cc3Cl)nc3c(OC4(C)CC4)ncnc32)c1` [Example T558, 2-(3-chloro-4-(6-(1-methylcyclopropoxy)-9-((4-methylpyridin-2-yl)methyl)-9H-purin-8-yl)phenyl)-1-(2,6-diazaspiro[3.3]heptan-2-yl)ethan-1-one], the IC50 is greater than 10000 nM. Same read-out and setting: the figure for `CC(C)(CCOc1ccc(-c2nc3c(OC4(C)CC4)ncnc3n2Cc2cccc(Cl)c2)c(Cl)c1)CC(=O)O` [Example T562, 5-(3-chloro-4-(9-(3-chlorobenzyl)-6-(1-methylcyclopropoxy)-9H-purin-8-yl)phenoxy)-3,3-dimethylpentanoic acid] is 126 nM; for `CC1(Oc2ncnc3c2nc(-c2cccc(OCCCCCCC(=O)O)c2Cl)n3Cc2cccc(Cl)c2)CC1` [Example T564, 7-(2-chloro-3-(9-(3-chlorobenzyl)-6-(1-methylcyclopropoxy)-9H-purin-8-yl)phenoxy)heptanoic acid] it is 31.6 nM. Turning to `CC1(Oc2ncnc3c2nc(-c2cccc(OCCCC(C)(C)C(=O)O)c2Cl)n3Cc2cccc(Cl)c2)CC1` [Example T565, 5-(2-chloro-3-(9-(3-chlorobenzyl)-6-(1-methylcyclopropoxy)-9H-purin-8-yl)phenoxy)-2,2-dimethylpentanoic acid], the IC50 was 100 nM. Take `CC1(Oc2ncnc3c2nc(-c2ccc(OCCN4CCNCC4C(F)F)cc2Cl)n3Cc2ccccc2)CC1` (centres unmarked) [Example T567, 9-benzyl-8-(2-chloro-4-(2-(2-(difluoromethyl)piperazin-1-yl)ethoxy)phenyl)-6-(1-methylcyclopropoxy)-9H-purine]: the IC50 is 158 nM.

The same assay, now with this note: Homo sapiens, DLD-1, first proliferation column; DLD-1 BRCA2-/-; read-out: POLQ PD Prolif Lumin (converted).
As for `Cc1ccnc(Cn2c(-c3ccc(CC(=O)N4CC[C@](C)(O)C4)cc3Cl)nc3c(OC4(C)CC4)ncnc32)c1` [Example T575, (S)-2-(3-chloro-4-(6-(1-methylcyclopropoxy)-9-((4-methylpyridin-2-yl)methyl)-9H-purin-8-yl)phenyl)-1-(3-hydroxy-3-methylpyrrolidin-1-yl)ethan-1-one], the IC50 was 316 nM. Turning to `Cc1ccnc(Cn2c(-c3ccc(OCC(=O)N4CCC[C@H]4CO)cc3Cl)nc3c(OC4(C)CC4)ncnc32)c1` [Example T576, (S)-2-(3-chloro-4-(6-(1-methylcyclopropoxy)-9-((4-methylpyridin-2-yl)methyl)-9H-purin-8-yl)phenoxy)-1-(2-(hydroxymethyl)pyrrolidin-1-yl)ethan-1-one], the IC50 is 501 nM. On the same count and under the same terms, the figure for `CO[C@H]1CCN(C(=O)COc2ccc(-c3nc4c(OC5(C)CC5)ncnc4n3Cc3cc(C)ccn3)c(Cl)c2)C1` [Example T577, (S)-2-(3-chloro-4-(6-(1-methylcyclopropoxy)-9-((4-methylpyridin-2-yl)methyl)-9H-purin-8-yl)phenoxy)-1-(3-methoxypyrrolidin-1-yl)ethan-1-one] is 398 nM; for `Cc1ccnc(Cn2c(-c3ccc(OCC(=O)N4CC[C@@H](CO)C4)cc3Cl)nc3c(OC4(C)CC4)ncnc32)c1` [Example T578, (R)-2-(3-chloro-4-(6-(1-methylcyclopropoxy)-9-((4-methylpyridin-2-yl)methyl)-9H-purin-8-yl)phenoxy)-1-(3-(hydroxymethyl)pyrrolidin-1-yl)ethan-1-one] it is 631 nM. Take `Cc1ccnc(Cn2c(-c3ccc(OCC(=O)N4CCC[C@@H]4CO)cc3Cl)nc3c(OC4(C)CC4)ncnc32)c1` [Example T579, (R)-2-(3-chloro-4-(6-(1-methylcyclopropoxy)-9-((4-methylpyridin-2-yl)methyl)-9H-purin-8-yl)phenoxy)-1-(2-(hydroxymethyl)pyrrolidin-1-yl)ethan-1-one]: the IC50 is 501 nM.

In the case of `Cc1ccnc(Cn2c(-c3ccc(OCC(=O)N4CCC(O)CC4)cc3Cl)nc3c(OC4(C)CC4)ncnc32)c1` [Example T580, 2-(3-chloro-4-(6-(1-methylcyclopropoxy)-9-((4-methylpyridin-2-yl)methyl)-9H-purin-8-yl)phenoxy)-1-(4-hydroxypiperidin-1-yl)ethan-1-one], the IC50 is 501 nM. As for `Cc1ccnc(Cn2c(-c3ccc(OCC(=O)N4CC[C@@](C)(O)C4)cc3Cl)nc3c(OC4(C)CC4)ncnc32)c1` [Example T581, (R)-2-(3-chloro-4-(6-(1-methylcyclopropoxy)-9-((4-methylpyridin-2-yl)methyl)-9H-purin-8-yl)phenoxy)-1-(3-hydroxy-3-methylpyrrolidin-1-yl)ethan-1-one], the IC50 is 501 nM. In the case of `Cc1ccnc(Cn2c(-c3ccc(OCC(=O)N(C)CC4(O)CC4)cc3Cl)nc3c(OC4(C)CC4)ncnc32)c1` [Example T583, 2-(3-chloro-4-(6-(1-methylcyclopropoxy)-9-((4-methylpyridin-2-yl)methyl)-9H-purin-8-yl)phenoxy)-N-((1-hydroxycyclopropyl)methyl)-N-methylacetamide], the IC50 is 2000 nM. Still for that read-out and setting: the figure for `Cc1ccnc(Cn2c(-c3ccc(O[C@H]4CCN(C(=O)[C@@H](C)O)C4)cc3Cl)nc3c(OC4(C)CC4)ncnc32)c1` [Example T584, (R)-1-((S)-3-(3-chloro-4-(6-(1-methylcyclopropoxy)-9-((4-methylpyridin-2-yl)methyl)-9H-purin-8-yl)phenoxy)pyrrolidin-1-yl)-2-hydroxypropan-1-one] is 794 nM; for `Cc1ccnc(Cn2c(-c3ccc(N4CCN5CCC[C@H]5C4)cc3Cl)nc3c(OC4(C)CC4)ncnc32)c1` [Example T585, (S)-8-(2-chloro-4-(hexahydropyrrolo[1,2-a]pyrazin-2(1H)-yl)phenyl)-6-(1-methylcyclopropoxy)-9-((4-methylpyridin-2-yl)methyl)-9H-purine] it is 200 nM; for `Cc1ccnc(Cn2c(-c3ccc(N4CCC5(CCN5)CC4)cc3Cl)nc3c(OC4(C)CC4)ncnc32)c1` [Example T586, 8-(2-chloro-4-(1,7-diazaspiro[3.5]nonan-7-yl)phenyl)-6-(1-methylcyclopropoxy)-9-((4-methylpyridin-2-yl)methyl)-9H-purine] it is 1580 nM. As to `Cc1ccnc(Cn2c(-c3ccc(C(=O)N4CC(N5CCCC5)C4)cc3Cl)nc3c(OC4(C)CC4)ncnc32)c1` [Example T602, (3-chloro-4-(6-(1-methylcyclopropoxy)-9-((4-methylpyridin-2-yl)methyl)-9H-purin-8-yl)phenyl)(3-(pyrrolidin-1-yl)azetidin-1-yl)methanone], the IC50 was 1260 nM. Take `Cc1ccnc(Cn2c(-c3ccc(CC(=O)N4CC(N5CCC5)C4)cc3Cl)nc3c(OC4(C)CC4)ncnc32)c1` [Example T603, 1-([1,3′-biazetidin]-1′-yl)-2-(3-chloro-4-(6-(1-methylcyclopropoxy)-9-((4-methylpyridin-2-yl)methyl)-9H-purin-8-yl)phenyl)ethan-1-one]: the IC50 was 794 nM. `CC1(Oc2ncnc3c2nc(-c2ccc(OCCN4C5CCC4CNC5)cc2Cl)n3Cc2ccccc2)CC1` [Example T605, 8-(4-(2-(3,8-diazabicyclo[3.2.1]octan-8-yl)ethoxy)-2-chlorophenyl)-9-benzyl-6-(1-methylcyclopropoxy)-9H-purine]: the IC50 is 158 nM. In the case of `CC(=O)N1CCN(CCOc2ccc(-c3nc4c(OC5(C)CC5)ncnc4n3Cc3cc(C)ccn3)c(Cl)c2)CC1` [Example T607, 1-(4-(2-(3-chloro-4-(6-(1-methylcyclopropoxy)-9-((4-methylpyridin-2-yl)methyl)-9H-purin-8-yl)phenoxy)ethyl)piperazin-1-yl)ethan-1-one], the IC50 is 126 nM.
